Assay results published in patent US7531622B2, “Synthesis and characterization of novel systems for guidance and vectorization of molecules of therapeutic interest towards target cells” (Centre National de la Recherche Scientifique- CNRS, priority 2002, dated 2009).
Non-standard residues stand in square brackets, D forms with d.

Tested on: HEK293 cells that overexpress integrin β3
Assay: Internalization of fluorescein-labeled peptides, confocal microscopy with early endosome immunolabeling
Type: cell-based
Conditions: 37° C., 15 to 30 minutes
Protocol: 3) Active internalization of drugs or vectorized products: The same cells, placed in contact at 37° C. or 4° C. for 15 to 30 minutes with peptides previously labeled with fluorescein, are observed by confocal microscopy after immunolabeling of the early endosome vesicles (anti-Early Endosome 1A labeling, visualized in red).
If incubation of the peptides is performed at 4° C., only the extracellular label is observed with the peptide obtained according to the invention, confirming that internalization takes place by way of an active process.

Substance: cyclo(RGDfK) (cyclo(RGD[dF]K)) [cRGD]
- visualization / detection of the peptide on and in cells by fluorescence: not detectable by immunofluorescence
- internalization by endocytosis (co-localization with EE1A label) (fluorescein-labeled peptide): not triggered
